These results are taken from patent publication US20110136829A1, “3-(N-HETEROCYCLYL)-PYRROLIDINYL-PHENYL-OXAZOLIDINONES AS ANTIBACTERIAL AGENTS” (FERRER INTERNACIONAL, S.A., priority 2008, published 2011).

≈ marks a conversion by molar mass, not a printed value.

Assay [1] relates to S. aureus ATCC25923 MS. The assay can be described thus: MIC by standard micro dilution method (NCCLS M7-A5). The assay is classed as cell-based. Particulars: Staphylococcus aureus, Mueller-Hinton medium (cation-adjusted), 16-24 h at 35° C., read-out: MIC, microorganism (1) S. aureus ATCC25923 MS.
For assay [2], the system named is S. pneumoniae ATCC49619 PR. The assay is described as above. Format: cell-based. Particulars: Streptococcus pneumoniae, 20-24 h at 35° C., 5% CO2, read-out: MIC, microorganism (2) S. pneumoniae ATCC49619 PR.
Assay [3] relates to E. faecium ATCC51559 MDR. The assay is described as above. The assay is classed as cell-based. The note with it: Enterococcus faecium, Mueller-Hinton medium (cation-adjusted), 16-24 h at 35° C., read-out: MIC, microorganism (3) E. faecium ATCC51559 MDR.
Assay [4] concerns S. aureus LNZ-R 432. The assay is described as above. Format: cell-based. Particulars: Staphylococcus aureus, LNZR432; linezolid-resistant strain; Mueller-Hinton medium, 16-24 h at 35° C.; read-out: MIC, microorganism (4) S. aureus LNZ-R 432.
Assay [5] deals with S. haemolyticus. The description is as above. Format: cell-based. The note with it: Staphylococcus haemolyticus; Mueller-Hinton medium (cation-adjusted), 16-24 h at 35° C.; read-out: MIC, microorganism (5) S. haemolyticus.
Assay [6] concerns H. influenzae ATCC49247. The description is as above. Format: cell-based. The note with it: Haemophilus influenzae, read-out: MIC, microorganism (6) H. influenzae ATCC49247.
For assay [7], the system named is B. fragilis sp. fragilis ATCC25285. The description is as above. Particulars: Bacteroides fragilis, anaerobic strain, Brucella Blood medium supplemented, read-out: MIC, microorganism (7) B. fragilis sp. fragilis ATCC25285. The assay is classed as cell-based.
Assay [8] relates to M. catarrhalis HCI-78. The description is as above. The assay is classed as cell-based. The note with it: Moraxella catarrhalis, HCI78; 20-24 h at 35° C., 5% CO2; read-out: MIC, microorganism (8) M. catarrhalis HCI-78.
The subject of assay [9] is E. faecium LNZ-R LR-4. The description is as above. The assay is classed as cell-based. The note with it: Enterococcus faecium; linezolid-resistant strain; Mueller-Hinton medium, 16-24 h at 35° C.; read-out: MIC, microorganism (9) E. faecium LNZ-R LR-4.
Assay [10] has as its system Moraxella, Pasteurella and Bacteroides spp. The note with it: background art; cited from earlier work.
The subject of assay [11] is other Gram-negative bacteria. The note with it: background art; cited from earlier work.

With `CC(=O)NC[C@H]1CN(c2ccc(N3CCC(n4ccnn4)C3)c(F)c2)C(=O)O1` (stereo partly drawn) [Ex. 3, N-((5S)-3-{3-fluoro-4-[3-(1-triazolyl)pyrrolidin-1-yl]-phenyl}-2-oxo-5-oxazolidinylmethyl)acetamide], the MIC amounted to 1 µg/mL (≈ 2.57 µM) in assay [1]; 1 µg/mL (≈ 2.57 µM) in [2]; 0.5 µg/mL (≈ 1.29 µM) in assay [3]; 16 µg/mL (≈ 41.2 µM) in [4]; 4 µg/mL (≈ 10.3 µM) in assay [5]; 4 µg/mL (≈ 10.3 µM) in assay [6]. Moreover, the MIC was 1 µg/mL (≈ 2.57 µM) in assay [7], 1 µg/mL (≈ 2.57 µM) in assay [8] and 8 µg/mL (≈ 20.6 µM) in assay [9].

As for `CC(=O)NC[C@H]1CN(c2ccc(N3CCC(n4cc(Br)cn4)C3)c(F)c2)C(=O)O1` (stereo partly drawn) [Ex. 17, N-((5S)-3-{3-fluoro-4-[3-(4-bromopyrazol-1-yl)pyrrolidin-1-yl]-phenyl}-2-oxo-5-oxazolidinylmethyl)acetamide], the MIC turned out to be 1 µg/mL (≈ 2.14 µM) in assay [1]; 0.25 µg/mL (≈ 0.536 µM) in assay [2]; 0.5 µg/mL (≈ 1.07 µM) in assay [3]; 8 µg/mL (≈ 17.2 µM) in assay [4]; 1 µg/mL (≈ 2.14 µM) in assay [5]; 1 µg/mL (≈ 2.14 µM) in assay [6]. Besides, the MIC came to 0.5 µg/mL (≈ 1.07 µM) in [7], 2 µg/mL (≈ 4.29 µM) in [8] and 1 µg/mL (≈ 2.14 µM) in assay [9].

In the case of `CC(=O)NC[C@H]1CN(c2ccc(N3CCC(n4cc(-c5ccncc5)cn4)C3)c(F)c2)C(=O)O1` (stereo partly drawn) [Ex. 18, N-((5S)-3-{3-fluoro-4-[3-(4-pyridin-4-yl-pyrazol-1-yl)pyrrolidin-1-yl]-phenyl}-2-oxo-5-oxazolidinylmethyl)acetamide], the MIC in assay [1] is 0.5 µg/mL (≈ 1.08 µM); in assay [2], 0.06 µg/mL (≈ 0.129 µM); in assay [3], 0.25 µg/mL (≈ 0.538 µM); in assay [4], 2 µg/mL (≈ 4.31 µM); in assay [6] it was 4 µg/mL (≈ 8.61 µM); in [7], 0.25 µg/mL (≈ 0.538 µM). In addition, the MIC in [8] was found to be 0.5 µg/mL (≈ 1.08 µM); in [9], 8 µg/mL (≈ 17.2 µM).

As for `CC(=O)NC[C@H]1CN(c2ccc(N3CCOCC3)c(F)c2)C(=O)O1` [Linezolid, N-[[(5S)-3-[3-fluoro-4-(4-morpholinyl)phenyl]-2-oxo-5-oxazolidinyl]methyl]acetamide, reference compound], the MIC in [1] is 1 µg/mL (≈ 2.96 µM); in assay [2], 1 µg/mL (≈ 2.96 µM); in [3] it was 0.5 µg/mL (≈ 1.48 µM); in assay [4], 16 to 32 µg/mL (≈ 47.4 to 94.9 µM); in assay [5], 128 µg/mL (≈ 379 µM); in assay [6] it was 16 µg/mL (≈ 47.4 µM). Moreover, the values for the MIC in assay [7], in assay [8] and in assay [9] were 2 µg/mL (≈ 5.93 µM), 2 µg/mL (≈ 5.93 µM) and 64 µg/mL (≈ 190 µM), respectively. For the same compound, the “MICS for Moraxella, Pasteurella and Bacteroides spp.” value in assay [10] was 2 to 8 µg/mL. The “susceptibility of other Gram-negative bacteria” value in assay [11] was “resistant”.

Take `CC(=O)NC[C@H]1CN(c2ccc(N3CCC(n4ccc(C(F)(F)F)n4)C3)c(F)c2)C(=O)O1` (stereo partly drawn) [Ex. 26, N-((5S)-3-{3-fluoro-4-[3-(3-trifluoromethyl-pyrazol-1-yl)pyrrolidin-1-yl]-phenyl}-2-oxo-5-oxazolidinylmethyl)acetamide]: the MIC in assay [1] stood at 2 µg/mL (≈ 4.39 µM); in assay [2], 0.5 µg/mL (≈ 1.1 µM); in assay [3], 1 µg/mL (≈ 2.2 µM); in assay [4], 16 µg/mL (≈ 35.1 µM); in assay [5], 1 µg/mL (≈ 2.2 µM); in assay [6], 1 µg/mL (≈ 2.2 µM). The MIC in assay [7] came out at 1 µg/mL (≈ 2.2 µM); in [8], 2 µg/mL (≈ 4.39 µM); in [9] it was 2 µg/mL (≈ 4.39 µM).

Take `CC(=O)NC[C@H]1CN(c2ccc(N3CCC(n4cc(-c5ccncn5)cn4)C3)c(F)c2)C(=O)O1` (stereo partly drawn) [Ex. 11, N-((5S)-3-{3-fluoro-4-[3-(4-pyrimidin-4-yl-pyrazol-1-yl)pyrrolidin-1-yl]-phenyl}-2-oxo-5-oxazolidinylmethyl)acetamide]: the MIC in [1] came out at 0.5 µg/mL (≈ 1.07 µM); in assay [2], 0.125 µg/mL (≈ 0.269 µM); in assay [3], 0.25 µg/mL (≈ 0.537 µM); in assay [4] it was 2 µg/mL (≈ 4.3 µM); in [6], 4 µg/mL (≈ 8.59 µM); in assay [7], 0.5 µg/mL (≈ 1.07 µM). For the same compound, the MIC was 0.5 µg/mL (≈ 1.07 µM) in [8] and 8 µg/mL (≈ 17.2 µM) in assay [9].

For `CC(=O)NC[C@H]1CN(c2ccc(N3CCC(n4cc([N+](=O)[O-])cn4)C3)c(F)c2)C(=O)O1` (stereo partly drawn) [Ex. 9, N-((5S)-3-{3-fluoro-4-[3-(4-nitropyrazol)pyrrolidinyl]-phenyl}-2-oxo-5-oxazolidinylmethyl)acetamide], the MIC in assay [1] amounted to 1 µg/mL (≈ 2.31 µM); in assay [2], 0.25 µg/mL (≈ 0.578 µM); in assay [3] it was 1 µg/mL (≈ 2.31 µM); in [4], 8 µg/mL (≈ 18.5 µM); in [5] it was 1 µg/mL (≈ 2.31 µM); in [6], 2 µg/mL (≈ 4.63 µM). In addition, the MIC came out at 0.5 µg/mL (≈ 1.16 µM) in assay [7], 1 µg/mL (≈ 2.31 µM) in [8] and 4 µg/mL (≈ 9.25 µM) in assay [9].

As for `CC(=O)NC[C@H]1CN(c2ccc(N3CCC(n4nnc(-c5cccs5)n4)C3)c(F)c2)C(=O)O1` (stereo partly drawn) [Ex. 15, N-((5S)-3-{3-fluoro-4-[3-(5-thiophen-2-yl-tetrazol-2-yl)pyrrolidin-1-yl]-phenyl}-2-oxo-5-oxazolidinylmethyl)acetamide], the MIC in assay [1] came to 0.5 µg/mL (≈ 1.06 µM); in [2], 0.125 µg/mL (≈ 0.265 µM); in assay [3], 0.25 µg/mL (≈ 0.53 µM); in assay [4], 4 µg/mL (≈ 8.48 µM); in assay [6], 8 µg/mL (≈ 17 µM); in assay [7], 0.5 µg/mL (≈ 1.06 µM). For the same compound, the MIC in [8] came out at 2 µg/mL (≈ 4.24 µM); in assay [9], 8 µg/mL (≈ 17 µM).

With `CC(=O)NC[C@H]1CN(c2ccc(N3CCC(n4cc(-c5ccc([N+](=O)[O-])cc5)cn4)C3)c(F)c2)C(=O)O1` (stereo partly drawn) [Ex. 19, N-[(5S)-3-(3-fluoro-4-{3-[4-(4-nitrophenyl)-pyrazol-1-yl]pyrrolidin-1-yl}-phenyl)-2-oxo-5-oxazolidinylmethyl]acetamide], the MIC in assay [1] was 0.5 µg/mL (≈ 0.983 µM); in [2] it was 0.125 µg/mL (≈ 0.246 µM); in assay [3], 0.25 µg/mL (≈ 0.492 µM); in assay [4], 2 µg/mL (≈ 3.93 µM); in assay [6], 4 µg/mL (≈ 7.87 µM); in assay [7], 1 µg/mL (≈ 1.97 µM). The MIC was 1 µg/mL (≈ 1.97 µM) in assay [8] and 64 µg/mL (≈ 126 µM) in assay [9].
